What was measured:
Format in all cases: biochemical
Human LDL = test: Protection of LDL from AAPH oxidation (agarose gel electrophoresis); details: 37° C.
[1] = beta-carotene-linoleate assay; details: 50° C., 180 min, 470 nm
Description: The ability of the dendritic antioxidants 1, 2, and 3 to protect linoleic acid against free radical damage was examined by the beta-carotene-linoleate model (Jayaprakasha, G. K., et al. Food Chem. 2001, 73, 285, incorporated herein by reference in its entirety). In the absence of an antioxidant, hydroperoxides formed from linoleic acid oxidation bleach the highly unsaturated beta-carotene by a free-radical-mediated phenomenon. The bleaching of the reddish-orange color of beta-carotene was monitored at 470 nm in the presence of various concentrations of antioxidant. The % absorbance (corrected for control without antioxidant) was determined at each antioxidant concentration after incubation at 50° C. for 180 min. The % A470 nm values were determined as follows: % A470 nm=[(At(180 min)/At(0 min))×100]−[(Ac(180 min)/Ac(0 min))×100], wherein At(180 min)=absorbance at 470 nm of antioxidant sample incubated at 50° C. for 180 min, At(0 min)=absorbance at 470 nm of antioxidant sample incubated at 50° C. for 0 min, Ac(180 min)=absorbance at 470 nm of control sample (without antioxidant) incubated at 50° C. for 180 min, and Ac(0 min)=absorbance at 470 nm of control sample (without antioxidant) incubated at 50° C. for 0 min. […] In FIG. 24, protection of linoleic acid from oxidation by various antioxidants is shown for compound 1 (□), compounds 2 and 3 (•), quercetin (x), and Trolox (Δ).

plasmid DNA pBR 322 = test: Protection of plasmid DNA from AAPH damage (agarose electrophoresis); details: 10 mM AAPH, 37° C., 4 h

Row | Structure (SMILES) | protection of LDL from AAPH free radicals (anodic migration) (Human LDL; 10 mM AAPH, 18 h) | only concentration effective in protecting LDL (Human LDL; 20 mM AAPH, 21 h) | protection of linoleic acid from oxidation [1] | DNA protection (plasmid DNA pBR 322; 5 μM antioxidant) | DNA protection (S band intensity) (plasmid DNA pBR 322; 11-45 μM antioxidant) | DNA protection (plasmid DNA pBR 322; below 5 μM antioxidant) | protection of LDL at all antioxidant concentrations (Human LDL; 1-30 μM, 20 mM AAPH, 21 h) | DNA protection at all concentrations used (plasmid DNA pBR 322; 0.35-45 μM)
1 | COc1cc(CN(Cc2ccc(CN(Cc3cc(OC)c(O)c(OC)c3)Cc3cc(OC)c(O)c(OC)c3)cc2)Cc2cc(OC)c(O)c(OC)c2)cc(OC)c1O [Compound 1] | most efficient in protecting LDL | 30 µM | most effective | Some protection | well protected | No protection | – | –
2 | Cc1c(C)c2c(c(C)c1O)CCC(C)(C(=O)O)O2 (stereo not drawn) [Trolox, 6-hydroxy-2,5,7,8-tetramethylchroman-2-carboxylic acid] | – | – | more effective than compounds 2 and 3 (and quercetin) at lower concentrations | – | – | – | ineffective | ineffective
